How the values were obtained:
[1] = Changes of serum lipids containing nervonic acid chains after taking acer truncatum bunge seed oil for different days; assay type: in vivo, SD rats; settings: for blood levels after taking acer truncatum bunge seed oil compared with before taking: rat blood; for serum lipid content, Day 1 (NA1) / serum lipid content, Day 3 (NA3) / serum lipid content, Day 7 (NA7) / difference in content between the third and the seventh day of administration / content compared with the normal group: rat serum; for serum lipid content, Day 1 (NA1) / serum lipid content, Day 3 (NA3) / serum lipid content, Day 7 (NA7): acer truncatum bunge seed oil group, nervonic acid 0.03 g/kg/d by gavage; for difference in content between the third and the seventh day of administration: day 3 vs day 7; for content compared with the normal group: oil group vs normal control group; for NA7/NA1: ratio of serum content day 7 to day 1
Method: The collected serum samples were thawed on ice, 200 µL plasma was extracted with 600 µL pre-cooled isopropanol, vortexed for 1 min, and incubated at room temperature for 10 min. Then the extraction mixture was stored overnight at -20° C., centrifuged at 4000r for 20 min, and the supernatant was transferred to a new centrifuge tube, diluted with isopropanol/acetonitrile/water (2:1:1, v:v:v) to 1:10. The samples were stored at -80° C. before LC-MS analysis. In addition, 10 µL of each extraction mixture was combined to prepare mixed plasma samples.
The mixed plasma samples were analyzed using ACQUITY UPLC(Waters, USA) connected to the Xevo-G2XS High Resolution Time of Flight (QTOF) Mass spectrometer (Waters) with ESI. CQUITY UPLC BEH C18 column (2.1× 100 mm, 1.7 µm, Waters), and mobile phase consisted of 10 mM ammonium formate-0.1% formic acid-acetonitrile (A, 60: 40, v/v) and 10 mM ammonium formate-0.1% formic acid-isopropanol-acetonitrile (B, 90:10, v/v) were used. Pilot trials with 10-, 15-, and 20-minute washout periods were conducted prior to the large-scale study to assess the potential impact of mobile phase composition and flow rate on lipid retention time. In PIM, rich lipid precursor ions and fragments separated in the same order, with similar peak shapes and ionic strengths. […] The flow rate of mobile phase was 0.4 mL/min. The column was initially eluted with 40% B, 43% B in 2 min according to linear gradient, and 50% B within 0.1 min, 54%B in 3.9 minutes according to linear gradient, and 70% B within 0.1 min. In the last part of the gradient, the amount of B increased to 99% in 1.9 minutes. Finally, solution B was returned to 40% within 0.1 min and the column was balanced for 1.9 min before the next sample injection. The lipids were detected by Xevo-G2XS QTOF mass spectrometer with a sample size of 5 µL/time, collection range of m/z50~1200 […], and collection time of 0.2 s/time. The ion source temperature was 120° C., the desolutizing temperature was 600° C., the gas flow rate was 1000 L/h, and nitrogen was used as the flowing gas. The capillary voltage was 2.0 kV(+)/the […] was 1.5 kV(-), and the cone voltage was 30 V. A standard quality determination was carried out using leucine enkephalin and corrected with sodium formate solution. The samples were sorted randomly. A quality control (QC) sample was injected into every 10 samples and analyzed to investigate repeatability of the data.
50 male SD rats aged 5-6 weeks were randomly divided into 2 groups, which were acer truncatum bunge seed oil group (NA group) and normal control group (CK group). After 1 week of adaptive feeding, rats in each group entered into the experiment. Acer truncatum bunge seed oil group was administrated by gavage according to the content of nervonic acid 0.03 g/kg/d, once a day, and blood was collected after 1, 3 and 7 days. The normal control group was fed routinely, and the blood was collected at the same time as the acer truncatum bunge seed oil group for the detection of lipid SM(d17:1/24:1) and Cer(d18:1/24:1(15Z)) with the nervonic acid chain.

[2] = Serum lipid content before and after taking acer truncatum bunge seed oil in patients with demyelinating disease; assay type: in vivo, human
From the text: For sample detection, sample pretreatment and ultra-high performance liquid chromatography-mass spectrometry in Example 1 were used. At the same time, standard SM(d17:1/24:1) and Cer(d18:1/24:1(15Z)) were used as reference for detection.

[3] = human, once a day for one month; cited from earlier work
[4] = after 1 day of taking the oil, individual patients

Compound	blood levels after taking acer truncatum bunge seed oil compared with before taking [1]	serum lipid content, Day 1 (NA1) [1]	serum lipid content, Day 3 (NA3) [1]	serum lipid content, Day 7 (NA7) [1]	difference in content between the third and the seventh day of administration [1]	content compared with the normal group [1]	NA7/NA1 [1]	serum lipid content relative to before taking acer truncatum bunge seed oil ([2]; after 7-day of taking the oil)	serum lipid content relative to before taking acer truncatum bunge seed oil [2, 4]	test indexes (mind, picture, recognition, association, sence of touch, understanding) compared with the control group [3]
SM(d17:1/24:1)	more than 1.2 times	245574.2	340912.8	291861.8	no significant difference	increased	1.2	1.22 times	1.15 times	
CCCCCCCC/C=C\CCCCCCCCCCCCCC(=O)N[C@@H](CO)[C@H](O)/C=C/CCCCCCCCCCCCC [Cer(d18:1/24:1(15Z))]	> 1.3 times	135883.1	209352.5	172840.3	no significant difference	increased	1.3	1.45 times	1.23 times	
CCCCCCCC/C=C\CCCCCCCCCCCCCC(=O)O [nervonic acid, cis-15-Tetracosenic acid]										significantly improved

From patent US20230324419A1, “METHOD FOR DIAGNOSING ACTING OF NERVONIC ACID AND USE THEREOF” (BAO FENG BIOTECH (BEIJING) CO., LTD, priority 2020, published 2023)
